Test results taken from patent publication US20100168146A1, “Composition Comprising (R)-Spiro[L-Azabicyclo[2.2.2]Octane-3,2'(3'H)-Furo[2,3-B]Pyridine (AZD0328) and its Use in the Treatment of Alzheimer's Disease, ADHD or Cognitive Dysfunction” (priority 2008, published 2010).

Columns and labels:
[1] = Single oral dose PK in healthy human volunteers (Table A); type: in vivo
Procedure: Total oral doses of AZD0328 in the range 0.025-0.68 mg produced mean plasma concentrations of 0.6-15 nM, consistent with the range of plasma concentrations found to be associated with improved performance in the spatial delayed response test in monkeys. Total oral doses of AZD0328 in the range 0.005-2 mg produced mean plasma concentrations of 0.17-43.9 nM, within the range of plasma concentrations found to be associated with improved performance in rodent models.

[2] = tested on: fimbria formix transected rats; test: Fimbria formix transected rat model (DNMTP, DRL, LTP); type: in vivo
Procedure: Previously, AZD0328 has been described, for example in U.S. Pat. No. 6,110,914 and counterpart worldwide patents, as an α7 agonist. In a widely used model of cognitive dysfunction using fimbria formix transected rats challenged to perform Delayed Non-Match to Position or Differential Reinforcement of Low Rates of Responding tasks, agonistic doses of 1 mg per kg and higher of AZD0328 effectively compensated for the acetylcholine deficiencies of these animals. These doses were associated with plasma concentrations at which AZD0328 acts as an agonist at α7 receptors in vitro. However, lower concentrations were ineffective in these model systems.
The potency of AZD0328 to activate α7 receptors in these in vitro preparations was in the micromolar range. […] For example, 1 or 3 mg/kg of AZD0328 reversed deficits in hippocampal long-term potentiation or response accuracy in two different cognitive tests in fimbria-formix lesioned animals (delayed non-match to position and differential reinforcement of low rates of responding). The minimum effective dose of 1 mg per kg necessary to reverse deficits in the rat fimbria formix model produced plasma concentrations in the range 0.29-1.4 μM in the rat, consistent with the range of concentrations required to activate α7 responses in vitro.

rats [3] = test: Modified Irwin screen; type: in vivo; conditions: Wistar rat, oral gavage, up to 4 h postdose
Procedure: The effects of AZD0328 were assessed in the modified Irwin screen, a behavioural, neurological and overt toxicity scoring protocol battery designed to detect a wide range of side effects (Table 3). The findings in the Irwin screen serve as a gross indication of CNS-mediated effects.

marmoset monkeys = test: Behavioral effects / tolerability; type: in vivo; conditions: im, first five minutes after administration
Procedure: Prior to testing its effects on cognitive task performance in marmoset monkeys, the tolerability of AZD0328 was assessed. (Table 3). Behaviours noted in individual marmosets during the five minutes immediately following drug administration were salivation, vomiting, scratching, defecation and increased activity.

guinea pigs = test: Cardiac repolarisation in anesthetised guinea pig (MAP); type: in vivo; conditions: highest dose, total plasma concentration 8.5 μM
Procedure: Effects of AZD0328 on ventricular repolarisation and intracardiac conduction were investigated in 6 anesthetised and ventilated guinea pigs (Table 3). For the electrophysiological characterisation, monophasic action potentia MAP duration at 90% repolarisation (MAPD90), ventricular conduction velocity (MAP rise time), and atrioventricular (AV) conduction time were recorded during cardiac pacing. AZD0328 had dose-dependent effects on the electrophysiological activities in the guinea pig heart. At the highest dose, resulting in a total plasma concentration of 8.5 μM, MAPD90 and AV conduction time were prolonged by 20% and 13%, respectively. It is concluded that AZD0328 delayed ventricular repolarisation in the anesthetised guinea pig by 10% at a total plasma concentration of 2.4 μM.

rats [4] = test: Intestinal motility (charcoal meal test, glass bead test); type: in vivo; conditions: rat, oral
Procedure: Effects of AZD0328 on small intestinal and colorectal motility were investigated in rats using the charcoal meal test and the glass bead test, respectively (Table 3). In the first part, evaluating intestinal transit, a test meal containing charcoal as a non-absorbable marker was administered to rats. In the second part, effects of oral administration of AZD0328 on colo-rectal transit time was evaluated.

human hepatocytes = test: Hepatocyte incubations (metabolites); type: in vitro ADME; conditions: four separate batches of human hepatocytes
Procedure: Pyridinyl methylation of AZD0328 was a unique polar metabolite (M2) observed in dog hepatocytes. Other minor hydroxylation/oxidation and glucuronide conjugation products were detected in monkey, dog, rat, and guinea pig hepatocyte incubations and mini-pig hepatic microsome incubations. […] Analysis of plasma and urine samples from either orally or iv dosed rats confirmed N-oxide product of AZD0328 was a main product in the excretion and circulation. The percentage of AZD0328 N-oxide in the plasma from male rats was much higher than from females.

[5] = Predicted human PK / exposure (allometric scaling of rat and monkey data)
Procedure: The 50% bioavailability of AZD0328 in human was conservatively selected based on the observations from rat, dog and monkey.
Given the findings in the 1 month repeated dose toxicology studies in the rats, it is reasonable to set human systemic exposure limits following single dose administration equal to the exposure observed at NOAEL for renal tubule vacuolation. The corresponding human equivalent dose, based on the FDA guidance (via allometric scaling of body surface area) is, 0.35 mg/kg. A dose of 0.03 mg/day is proposed as a starting dose.

[6] = single oral 0.025 mg, geometric mean
[7] = single oral 0.075 mg, geometric mean
[8] = single oral 0.23 mg, geometric mean
[9] = single oral 0.68 mg, geometric mean
[10] = single oral 1.35 mg, geometric mean
[11] = single oral 2 mg, geometric mean

SMILES: c1cnc2c(c1)C[C@@]1(CN3CCC1CC3)O2 [AZD0328, (R)-Spiro[1-azabicyclo[2.2.2]octane-3,2′(3′H)-furo[2,3-b]pyridine]]
- Cmax/Dose ([1]; single oral 0.005 mg, geometric mean (% CV)): 0.007 (24)
- AUC/Dose [1, 6]: 0.053
- CL/F [1, 6]: 19.0 L/h
- Cmax/Dose [1, 6]: 0.006
- AUC/Dose [1, 7]: 0.049
- Cmax/Dose [1, 7]: 0.006
- AUC/Dose [1, 8]: 0.061
- Cmax/Dose [1, 8]: 0.006
- t1/2 [1, 8]: 6.7 h
- AUC/Dose [1, 9]: 0.046
- Cmax/Dose [1, 9]: 0.005
- t1/2 [1, 9]: 6.0 h
- AUC/Dose [1, 10]: 0.054
- Cmax/Dose [1, 10]: 0.005
- AUC/Dose [1, 11]: 0.046
- CL/F [1, 11]: 22.0 L/h
- Cmax/Dose [1, 11]: 0.005
- Minimum effective dose [2]: 1 mg per kg
- Dose with sedation (rats [3]): 129.8 mg/kg up to 4 h postdose.
- Doses with salivation, vomiting, scratching, defecation and increased activity (marmoset monkeys): administration with 0.03-3 mg/kg
- AV conduction time prolongation (guinea pigs): 13%
- MAPD90 prolongation (guinea pigs): 20%
- Dose with inhibition of small- and large-intestinal motility (rats [4]): ≥ 130 µmol/kg
- Metabolites in hepatocyte incubations (human hepatocytes): no metabolites were detected
- Predicted free human therapeutic plasma level [5]: 0.5 to 1.7 nM
- Human equivalent dose of the rat NOAEL (allometric scaling of body surface area) ([5]; NOAEL for renal tubule vacuolation): 0.35 mg/kg
- Bioavailability in human, conservatively selected ([5]; human): 50%
